Assay results as given in patent publication US6087375A, “Methods of treating or preventing thromboses” (priority 1999, dated 2000).

Tested on: human platelets (thrombin-induced aggregation)
Assay: Thrombin-induced platelet aggregation assay
Assay type: cell-based
Procedure: The conjugate was prepared according to the following protocol. A 15 μM solution of RSA in PBS was reacted with 200 μM argatroban-C6 NHS ester for 1 hour at room temperature. Sham samples consist of the RSA incubated for the same length of time at RT in 2% DMSO in PBS. Each of the samples was then concentrated to a final volume of 1.5 mL using Amicon Centricon 30 filtration/concentration devices. The concentrated samples were then desalted on Pierce's 5 ML Kwiksep excellulose plastic desalting columns. The excluded volumes containing RSA or argatroban-C6-RSA were then subjected to BCA microprotein estimation and lyophilization. In addition, these samples were analyzed by LC/MS, sandwich ELISA assays (described above) to measure thrombin binding and immunoblotting.
Platelets were purified from freshly drawn human blood diluted with the anticoagulant buffer ACD (9 mls of blood to 1 mL of buffer). The blood was centrifuged for 25 min at 200×g. The platelet-rich plasma (PRP) was recovered with a plastic pipette. The PRP was centrifuged for 15 min at 3,000×g in v-shaped plastic tubes. The supernatant, called platelet-poor plasma (PPP), was then removed and saved, and the platelets were resuspended in buffer A1 (35 mM citric acid, 103 mM NaCl, 5 mM each of glucose and KCl, 2 mM CaCl2, 1 mM […], 3.5 mg/mL BSA, 0.1 μM PGE1 and 0.3 U/mL of apyrase at pH 6.5). The resuspended platelets were washed 2 times with buffer A1. After the last wash, the platelets were resuspended in buffer B1 (137 mM NaCl, 2.6 mM KCL 12 mM NaHCO3, 0.3 mM NaH2 PO4, 3 mM CaCl2, 1 mM MgCl2, 5 mM glucose, 3.5 mg/mL BSA and […] apyrase at pH 7.4) at a density of 3×10^5 /μL. The platelets were maintained at room temperature until ready for use.
Various parameters relevant to platelet aggregation were obtained on a four channel aggregometer manufactured by AFFI BIO. In brief, the reaction chambers are warmed to 37° C. and are agitated at a rate of 1,200 rpm. Light is passed through the reaction chambers, with 300 μL of buffer B1 used to set the 100% transmittance level for each chamber. From a series of standardization experiments, it was determined that 0.5 U/mL of human thrombin (Sigma) is an optimal aggregating concentration of thrombin and is used to set. the 0% transmittance for the instrument. Standard conditions for the assay involve incubating 250 μL of the platelet suspension with or without 50 μL of inhibitor diluted in buffer in the reaction chambers for 60 seconds at 37° C. The value of transmittance is now set as 0%. After this measurement, thrombin is added to the reaction chambers (20 μl) and transmittance is measured for the next 6 minutes. Samples were performed in triplicate.

RSA-argatroban-C6 conjugate: rabbit serum albumin covalently bound by argatroban-C6 NHS ester molecules
IC50 (estimated concentration which inhibits 50% of the aggregation) (0.5 U/mL human thrombin, 37° C., conjugate: average of 10 argatrobans/RSA used): 4.5 to 7.5 µM
delay in thrombin-induced platelet aggregation (FIG. 11, versus sham-treated RSA): clearly delayed platelet aggregation
